Starred links: 1 amine or outer side, 2 acyl side, 3 side chain; linkers in the order of their positions; H or OH if unused. Non-standard residues stand in square brackets, D forms with d. Residues, ends and D or L forms follow the SMILES beside them. Groups on a side chain read outwards from the residue. *: point of attachment. C18 diacid = O=C(O)CCCCCCCCCCCCCCCCC(=O)*; C17 diacid = O=C(O)CCCCCCCCCCCCCCCC(=O)*; γGlu = O=C(O)[C@H](CCC(=O)[*:2])N[*:1]; NMeY = CN[C@@H](Cc1ccc(O)cc1)C(=O)O; AEEA = NCCOCCOCC(=O)O; Aib = CC(C)(N)C(=O)O A value given as a limit tells only on which side of the number the result lay.

The nature of the data set: Solubility in phosphate buffer pH 7.4. The procedure, abridged:
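Solubility at pH 7.4 determined by stepwise addition of 200 mM phosphate buffer in 100 μL increments to 3 mg peptide, mixing briefly each time, until no insoluble material remained, then measured by liquid chromatography.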

Where [1] appears, read: pH 7.4, aqueous buffer, pH 7.4 Phosphate Buffer - Solubility, 200 mM Phosphate buffer pH 7.4.
Where [2] appears, read: pH 7.4, solubility in phosphate buffer at pH 7.4, 200 mM phosphate buffer pH 7.4.

With `CC[C@H](C)[C@H](NC(=O)[C@H](CO)NC(=O)[C@H](Cc1ccc(O)cc1)NC(=O)[C@H](CC(=O)O)NC(=O)[C@H](CO)NC(=O)[C@@H](NC(=O)[C@H](Cc1ccccc1)NC(=O)[C@@H](NC(=O)CNC(=O)[C@H](CCC(=O)O)NC(=O)C(C)(C)NC(=O)[C@H](Cc1ccc(O)cc1)NC)[C@@H](C)O)[C@@H](C)CC)C(=O)N[C@@H](C)C(=O)N[C@@H](CCCCNC(=O)CNC(=O)CNC(=O)CNC(=O)CNC(=O)CNC(=O)CC[C@H](NC(=O)CC[C@H](NC(=O)CCCCCCCCCCCCCCCCC(=O)O)C(=O)O)C(=O)O)C(=O)N[C@@H](CC(=O)O)C(=O)N[C@@H](CCCNC(=N)N)C(=O)NC(C)(C)C(=O)N[C@@H](C)C(=O)N[C@@H](CCC(N)=O)C(=O)NC(C)(C)C(=O)N[C@@H](CC(N)=O)C(=O)N[C@@H](Cc1ccccc1)C(=O)N[C@H](C(=O)N[C@@H](CC(N)=O)C(=O)N[C@@H](Cc1c[nH]c2ccccc12)C(=O)N[C@@H](CC(C)C)C(=O)N[C@@H](CC(C)C)C(=O)N[C@@H](C)C(=O)N[C@@H](CCC(N)=O)C(=O)N[C@@H](CCCNC(=N)N)C(=O)N1CCC[C@H]1C(=O)N[C@@H](CO)C(=O)N[C@@H](CO)C(=O)NCC(=O)N[C@@H](C)C(=O)N1CCC[C@H]1C(=O)N1CCC[C@H]1C(=O)N1CCC[C@H]1C(=O)N[C@@H](CO)C(N)=O)C(C)C` [Compound 34], the solubility reads like this: under setting [1], at least 30 mg/mL; under setting [2], at least 15 mg/mL.
For `CC[C@H](C)[C@H](NC(=O)[C@H](Cc1ccccc1)NC(=O)[C@@H](NC(=O)CNC(=O)[C@H](CCC(=O)O)NC(=O)C(C)(C)NC(=O)[C@H](Cc1ccc(O)cc1)NC)[C@@H](C)O)C(=O)N[C@@H](CO)C(=O)N[C@@H](CC(=O)O)C(=O)N[C@@H](Cc1ccc(O)cc1)C(=O)N[C@@H](CO)C(=O)N[C@H](C(=O)NC(C)(C)C(=O)N[C@@H](CC(C)C)C(=O)N[C@@H](CC(=O)O)C(=O)N[C@@H](CCCNC(=N)N)C(=O)N[C@@H](CCCCNC(=O)CNC(=O)CNC(=O)CNC(=O)CNC(=O)CNC(=O)CCCCCCCCCCCCCCCCC(=O)O)C(=O)N[C@@H](C)C(=O)N[C@@H](CCC(N)=O)C(=O)NC(C)(C)C(=O)N[C@@H](CC(=O)O)C(=O)N[C@@H](Cc1ccccc1)C(=O)N[C@H](C(=O)N[C@@H](CC(N)=O)C(=O)N[C@@H](Cc1c[nH]c2ccccc12)C(=O)N[C@@H](CC(C)C)C(=O)N[C@@H](CC(C)C)C(=O)N[C@@H](C)C(=O)N[C@@H](CCC(N)=O)C(=O)N[C@@H](CCCNC(=N)N)C(=O)NCC(=O)O)C(C)C)[C@@H](C)CC` [Compound 284], the solubility (pH 7.4, aqueous buffer) was under 15 mg/mL.
Turning to `CC[C@H](C)[C@H](NC(=O)[C@H](CO)NC(=O)[C@H](Cc1ccc(O)cc1)NC(=O)[C@H](CC(=O)O)NC(=O)[C@H](CO)NC(=O)[C@@H](NC(=O)[C@H](Cc1ccccc1)NC(=O)[C@@H](NC(=O)CNC(=O)[C@H](CCC(=O)O)NC(=O)C(C)(C)NC(=O)[C@H](Cc1ccc(O)cc1)NC)[C@@H](C)O)[C@@H](C)CC)C(=O)N[C@@H](C)C(=O)N[C@@H](CC(C)C)C(=O)N[C@@H](CC(=O)O)C(=O)N[C@@H](CCCNC(=N)N)C(=O)N[C@@H](CCCCNC(=O)COCCOCCNC(=O)COCCOCCNC(=O)CC[C@H](NC(=O)CCCCCCCCCCCCCCCC(=O)O)C(=O)O)C(=O)N[C@@H](C)C(=O)N[C@@H](CCC(N)=O)C(=O)NC(C)(C)C(=O)N[C@@H](CC(N)=O)C(=O)N[C@@H](Cc1ccccc1)C(=O)N[C@H](C(=O)N[C@@H](CC(N)=O)C(=O)N[C@@H](Cc1c[nH]c2ccccc12)C(=O)N[C@@H](CC(C)C)C(=O)N[C@@H](CC(C)C)C(=O)N[C@@H](C)C(=O)N[C@@H](CCC(N)=O)C(=O)N[C@@H](CCCNC(=N)N)C(=O)N1CCC[C@H]1C(=O)N[C@@H](CO)C(=O)N[C@@H](CO)C(=O)NCC(=O)N[C@@H](C)C(=O)N1CCC[C@H]1C(=O)N1CCC[C@H]1C(=O)N1CCC[C@H]1C(=O)N[C@@H](CO)C(N)=O)C(C)C` [Compound 266] (H-[NMeY][Aib]EGTFISDYSIALDRK([AEEA-AEEA-γGlu-C17 diacid])AQ[Aib]NFVNWLLAQRPSSGAPPPS-NH2), the solubility under setting [1] was under 6 mg/mL.
Regarding `CC[C@H](C)[C@H](NC(=O)[C@H](CO)NC(=O)[C@H](Cc1ccc(O)cc1)NC(=O)[C@H](CC(=O)O)NC(=O)[C@H](CO)NC(=O)[C@@H](NC(=O)[C@H](Cc1ccccc1)NC(=O)[C@@H](NC(=O)CNC(=O)[C@H](CCC(=O)O)NC(=O)C(C)(C)NC(=O)[C@H](Cc1ccc(O)cc1)NC)[C@@H](C)O)[C@@H](C)CC)C(=O)N[C@@H](C)C(=O)N[C@@H](CCCCNC(=O)CC[C@H](NC(=O)CC[C@H](NC(=O)CC[C@H](NC(=O)CCCCCCCCCCCCCCCC(=O)O)C(=O)O)C(=O)O)C(=O)O)C(=O)N[C@@H](CC(=O)O)C(=O)N[C@@H](CCCNC(=N)N)C(=O)NC(C)(C)C(=O)N[C@@H](C)C(=O)N[C@@H](CCC(N)=O)C(=O)NC(C)(C)C(=O)N[C@@H](CC(N)=O)C(=O)N[C@@H](Cc1ccccc1)C(=O)N[C@H](C(=O)N[C@@H](CC(N)=O)C(=O)N[C@@H](Cc1c[nH]c2ccccc12)C(=O)N[C@@H](CC(C)C)C(=O)N[C@@H](CC(C)C)C(=O)N[C@@H](C)C(=O)N[C@@H](CCC(N)=O)C(=O)N[C@@H](CO)C(=O)N1CCC[C@H]1C(=O)N[C@@H](CO)C(=O)N[C@@H](CO)C(=O)NCC(=O)N[C@@H](C)C(=O)N1CCC[C@H]1C(=O)N1CCC[C@H]1C(=O)N1CCC[C@H]1C(=O)N[C@@H](CO)C(N)=O)C(C)C` [Compound 12] (H-[NMeY][Aib]EGTFISDYSIAK([γGlu-γGlu-γGlu-C17 diacid])DR[Aib]AQ[Aib]NFVNWLLAQSPSSGAPPPS-NH2), the solubility is at least 30 mg/mL under setting [1] and at least 15 mg/mL under setting [2].
`CC[C@H](C)[C@H](NC(=O)[C@H](CO)NC(=O)[C@H](Cc1ccc(O)cc1)NC(=O)[C@H](CC(=O)O)NC(=O)[C@H](CO)NC(=O)[C@@H](NC(=O)[C@H](Cc1ccccc1)NC(=O)[C@@H](NC(=O)CNC(=O)[C@H](CCC(=O)O)NC(=O)C(C)(C)NC(=O)[C@@H](N)Cc1ccc(O)cc1)[C@@H](C)O)[C@@H](C)CC)C(=O)N[C@@H](C)C(=O)N[C@@H](CCCCNC(=O)CNC(=O)CNC(=O)CNC(=O)CNC(=O)CNC(=O)CCCCCCCCCCCCCCCCC(=O)O)C(=O)N[C@@H](CC(=O)O)C(=O)N[C@@H](CCCNC(=N)N)C(=O)N[C@@H](C)C(=O)N[C@@H](C)C(=O)N[C@@H](CCC(N)=O)C(=O)NC(C)(C)C(=O)N[C@@H](CC(=O)O)C(=O)N[C@@H](Cc1ccccc1)C(=O)N[C@H](C(=O)N[C@@H](CCC(=O)O)C(=O)N[C@@H](Cc1c[nH]c2ccccc12)C(=O)N[C@@H](CC(C)C)C(=O)N[C@@H](CC(C)C)C(=O)N[C@@H](C)C(=O)N[C@@H](CCC(N)=O)C(=O)N[C@@H](CCCNC(=N)N)C(=O)NCC(=O)O)C(C)C` [Compound 291] gave a solubility (pH 7.4, aqueous buffer) of under 6 mg/mL.
As for `CC[C@H](C)[C@H](NC(=O)[C@H](Cc1ccccc1)NC(=O)[C@@H](NC(=O)CNC(=O)[C@H](CCC(=O)O)NC(=O)C(C)(C)NC(=O)[C@H](Cc1ccc(O)cc1)NC)[C@@H](C)O)C(=O)N[C@@H](CO)C(=O)N[C@@H](CC(=O)O)C(=O)N[C@@H](Cc1ccc(O)cc1)C(=O)N[C@@H](CO)C(=O)N[C@H](C(=O)NC(C)(C)C(=O)N[C@@H](CC(C)C)C(=O)N[C@@H](CC(=O)O)C(=O)N[C@@H](CCCNC(=N)N)C(=O)NC(C)(C)C(=O)N[C@@H](CCCCNC(=O)COCCOCCNC(=O)COCCOCCNC(=O)CC[C@H](NC(=O)CC[C@H](NC(=O)CCCCCCCCCCCCCCCCC(=O)O)C(=O)O)C(=O)O)C(=O)N[C@@H](CCC(N)=O)C(=O)NC(C)(C)C(=O)N[C@@H](CC(=O)O)C(=O)N[C@@H](Cc1ccccc1)C(=O)N[C@H](C(=O)N[C@@H](CC(N)=O)C(=O)N[C@@H](Cc1c[nH]c2ccccc12)C(=O)N[C@@H](CC(C)C)C(=O)N[C@@H](CC(C)C)C(=O)N[C@@H](C)C(=O)N[C@@H](CCC(N)=O)C(=O)N[C@@H](CCCNC(=N)N)C(=O)NCC(=O)O)C(C)C)[C@@H](C)CC` [Compound 73] (H-[NMeY][Aib]EGTFISDYSI[Aib]LDR[Aib]K([AEEA-AEEA-γGlu-γGlu-C18 diacid])Q[Aib]DFVNWLLAQRG-OH), the solubility reads like this: (pH 7.4) at least 15 mg/mL; (pH 7.4, aqueous buffer) at least 30 mg/mL.
On the same counts, the results for `CC[C@H](C)[C@H](NC(=O)[C@H](CO)NC(=O)[C@H](Cc1ccc(O)cc1)NC(=O)[C@H](CC(=O)O)NC(=O)[C@H](CO)NC(=O)[C@@H](NC(=O)[C@H](Cc1ccccc1)NC(=O)[C@@H](NC(=O)CNC(=O)[C@H](CCC(=O)O)NC(=O)C(C)(C)NC(=O)[C@@H](N)Cc1ccc(O)cc1)[C@@H](C)O)[C@@H](C)CC)C(=O)N[C@@H](C)C(=O)N[C@@H](CC(C)C)C(=O)N[C@@H](CC(=O)O)C(=O)N[C@@H](CCCCN)C(=O)N[C@@H](C)C(=O)N[C@@H](C)C(=O)N[C@@H](CCC(N)=O)C(=O)NC(C)(C)C(=O)N[C@@H](CCCCNC(=O)COCCOCCNC(=O)COCCOCCNC(=O)CC[C@H](NC(=O)CC[C@H](NC(=O)CCCCCCCCCCCCCCCC(=O)O)C(=O)O)C(=O)O)C(=O)N[C@@H](Cc1ccccc1)C(=O)N[C@H](C(=O)N[C@@H](CCC(=O)O)C(=O)N[C@@H](Cc1c[nH]c2ccccc12)C(=O)N[C@@H](CC(C)C)C(=O)N[C@@H](CC(C)C)C(=O)N[C@@H](C)C(=O)N[C@@H](CCC(N)=O)C(=O)N[C@@H](CCCNC(=N)N)C(=O)NCC(=O)O)C(C)C` [Compound 133] (H-Y[Aib]EGTFISDYSIALDKAAQ[Aib]K([AEEA-AEEA-γGlu-γGlu-C17 diacid])FVEWLLAQRG-OH) are at least 15 mg/mL and at least 30 mg/mL.

As a reminder, the solubility is the concentration that dissolves in the medium under given conditions. Lower therefore signals a poorly soluble substance.

Source of the values: patent US20230143604A1, “QW DOSING OF GIP RECEPTOR AGONIST PEPTIDE COMPOUNDS AND USES THEREOF” (TAKEDA PHARMACEUTICAL COMPANY LIMITED, priority 2020, published 2023).
